Columns and labels:
[1] = target: T1, aldose reductase of rabbit lens (Oryctolagus cuniculus, UniProt P15122); assay: Inhibitory effect on aldose reductase of lens; assay type: biochemical; conditions: read-out: Degree of inhibition for aldose reductase (%)
T1 construct: to obtain electrophoretically homogeneous aldose reductase; from tissue; host or cells: rabbit lens
Procedure: (§1) 0.05 ml of 3mM NADPH, 0.1 ml of DL-glyceraldehyde and 0.04 ml of distilled water were added to 0.8 ml of 0.1M phosphoric acid buffer (pH 6.2) and left to stand at 25°C for 3 minutes. Then, 0.01 ml of the aldose reductase solution was added thereto to start reaction and decreasing of absorbance of 340 nm was measured at 25°C with time. Amount of enzyme which consumes 1 µmole of NADPH for 1 minute was taken as 1 unit.
Enzyme activity was measured under the same conditions as in the above measurement of aldose reductase activity except that 0.04 ml of aqueous solution of inhibitory substance in various concentrations was added in place of 0.04 ml of distilled water and degree of inhibition was calculated from comparison of the enzyme activity with the enzyme activity obtained in the absence of inhibitor. (1) OPQ, (2) methyl OPQ, (3) 1-methylpropyl OPQ, (4) 2-methylpropyl OPQ, (5) 2-carbamoylethyl OPQ, (6) hydroxymethyl OPQ, (7) 2-methylthioethyl OPQ, (8) 2-carboxyethyl OPQ, (9) 4-hydroxybenzyl OPQ, (10) 1-methylethyl OPQ, and (11) benzyl OPQ were used as inhibition substances and (12) PQQ was used as control.
Lens of rabbit was homogenized with 10mM phosphoric acid buffer (pH 7.0) containing 2mM dithiothreitol in an amount of two times the volume of the lens and subjected to centrifugation. The supernatant liquid was purified by affinity chromatography, gel filtration and chromatofocusing to obtain electrophoretically homogeneous aldose reductase. Using (1) OPQ, (2) 1-methylpropyl OPQ, (3) 2-methylpropyl OPQ, (4) hydroxymethyl OPQ, and (5) 1-methylethyl OPQ as inhibition substances, degree of inhibition of these substances for aldose reductase of rabbit lens was examined in the same manner in Example 32.

male SPF-ICR mice = assay: in vivo
Procedure: (§2) (1) Acute toxicity test: • (i) To male SPF-ICR mice of 5 weeks old (supplied by Charles River Co.) were intraperitoneally administered PQQ·2Na and OPQs in the dosages of 20, 40, 80, 160 and 200 mg/kg body weight of mouse, respectively and they were bred at 25°C for 14 days. OPQ, 1-methylpropyl OPQ, 2-methylthioethyl OPQ, and benzyl OPQ were used as the OPQs. One group consisted of 8 mice. […] One group consisted of 8 mice. […] They were bred at 25°C for 14 days. One group consisted of eight mice. […] (2) Toxicity to kidney (i) Toxicity to kidney determined by urine examination: In the same manner as in the acute toxicity test, PQQ·2Na and OPQs were respectively intraperitoneally administered to mice and these mice were bred. Urine was collected every day and concentration of glucose in urine was obtained using Uristex II (manufactured by Miles·Sankyo Co.). […]

kidney = assay: Toxicity to kidney determined by blood examination; assay type: in vivo, mice
Procedure: After one day from administration, the mice were fasted (only water was given) and after lapse of 18 hours, blood was collected and serum was obtained therefrom. Glucose, urea nitrogen and creatinine in the serum were examined using FUJI Dry Chemslide (manufactured by Fuji Photo Film Co., Ltd.). […]
Thereafter, the mice were fasted (with giving only water) and after lapse of 18 hours, blood was collected and serum was obtained therefrom. Contents of glucose, urea nitrogen and creatinine in serum were obtained using FUJI Dry Chemslide. The results were shown by average value for eight mice.

[2] = Solubility of the isolated compound, described in words; assay type: physicochemical; conditions: for solubility in water / solubility under neutral and alkaline conditions: water
[3] = system: carbon tetrachloride (CCl4)-induced liver diseases; assay: Pharmacological activity on carbon tetrachloride-induced liver diseases; assay type: in vivo, SD rats; conditions: 5mg/kg rat twice, CCl4 1 ml/kg rat; for Total bilirubin: Table 27: CCl4 only 1.2, no administration 0.5; for GPT: Table 27: CCl4 only 818, no administration 16; for GOT: Table 27: CCl4 only 3308, no administration 144
[4] = target: aldose reductase of kidney (Canis lupus familiaris, UniProt A0A8I3P2L6); assay: Inhibitory effect on aldose reductase of kidney; assay type: biochemical, dog; conditions: read-out: Degree of inhibition for aldose reductase (%); for inhibition at 0.5 µM: concentration 5x10^-7 M; for inhibition at 1 µM: concentration 1x10^-6 M; for inhibition at 2 µM: concentration 2x10^-6 M; for inhibition at 5 µM: concentration 5x10^-6 M
Procedure: as §1, with “Medulla of kidney of dog was homogenized with 10mM phosphoric acid buffer (pH 7.0) containing 2mM dithiothreitol in an amount of four times the volume of kidney medulla and subjected to centrifugation. The supernatant liquid was purified by affinity chromatography, gel filtration and chromatofocusing to obtain electrophoretically homogeneous aldose reductase. 0.05” for “0.05”

cataract = assay: Anti-cataract effect, intraperitoneal administration, 50 % galactose fed rats; assay type: in vivo, Sprague-Davley rats; conditions: for Body weight (average): 20mg/kg rat intraperitoneally once a day
Procedure: Eightyfour male Sprague-Davley rats (supplied from Japan Charles Liver Co.) of four weeks old and having a body weight of 70 - 80 g were used and the following experiments were conducted. One group consisted of six rats.
The groups included normal group, 50 % galactose administration group, PQQ administration group, and OPQ administration group. Commercially available feeding stuff (manufactured by Japan Clea Co.) was given to the rats of normal group, and rats of 50 % galactose administration group, PQQ administration group and OPQ administration group were allowed to freely take powdery feeding stuff comprising a mixture of the above-mentioned commercially available powder feeding stuff and D-galactose for food additive in equal weight.
To the rats of PQQ and OPQ administration groups were intraperitoneally administered PQQ·2Na or OPQ in a dosage of 2 mg, 5 mg, 10 mg and 20 mg per 1 kg of rat once a day simultaneously with starting of galactose feeding and until termination of feeding.
On the 6th day and the 9th day from starting of experiment, eyeball was observed by stereoscopic microscope and judgment on cataract was made according to the following criteria. A0: No muddiness (normal) A1: Light white muddiness in the surface portion. A2: A slight heavy white muddiness in the surface portion. A3: Heavy white muddiness in the surface portion. A4: Heavy white muddiness in the surface portion and a slight white muddiness in the core portion. A5: Heavy white muddiness in the surface portion and the core portion.

in vivo = conditions: mouse, in vivo, ip
Procedure: as §2

[5] = serum, 40 mg/kg mouse intraperitoneally, Table 2, no administration 0.8
[6] = serum, 40 mg/kg mouse intraperitoneally, Table 2, no administration 24
[7] = serum, 40 mg/kg mouse intraperitoneally, Table 2, no administration 78
[8] = serum, 80 mg/kg mouse intraperitoneally, Table 2, no administration 0.8
[9] = serum, 80 mg/kg mouse intraperitoneally, Table 2, no administration 24
[10] = serum, 80 mg/kg mouse intraperitoneally, Table 2, no administration 78
[11] = serum, 160 mg/kg mouse intraperitoneally, Table 2, no administration 0.8
[12] = serum, 160 mg/kg mouse intraperitoneally, Table 2, no administration 24
[13] = serum, 160 mg/kg mouse intraperitoneally, Table 2, no administration 78
[14] = serum, 200 mg/kg mouse intraperitoneally, Table 2, no administration 0.8
[15] = serum, 200 mg/kg mouse intraperitoneally, Table 2, no administration 24
[16] = serum, 200 mg/kg mouse intraperitoneally, Table 2, no administration 78

## CCC(C)c1nc2c3nc(C(=O)O)cc(C(=O)O)c3c3[nH]c(C(=O)O)cc3c2o1 (stereo not shown) [1-Methylpropyl OPQ, 5-(1-Methylpropyl)-2,8,10-tricarboxy-1H-oxazo[5,4-h]-pyrrolo[2,3-f]quinoline]
[1]; concentration 1x10^-6 M
  inhibition at 1 µM: 64.7%
[1]; concentration 1x10^-7 M
  inhibition at 0.1 µM: 24%
[1]; concentration 2x10^-7 M
  inhibition at 0.2 µM: 36.4%
[1]; concentration 5x10^-7 M
  inhibition at 0.5 µM: 50.8%
Male SPF-ICR mice; mouse, in vivo
  death of mice: no mice died
kidney; [5]
  Creatinine: 0.8 mg/dL
kidney; [6]
  Urea nitrogen: 26 mg/dL
kidney; [7]
  Glucose: 87 mg/dL
kidney; [8]
  Creatinine: 0.8 mg/dL
kidney; [9]
  Urea nitrogen: 22 mg/dL
kidney; [10]
  Glucose: 104 mg/dL
kidney; [11]
  Creatinine: 0.8 mg/dL
kidney; [12]
  Urea nitrogen: 27 mg/dL
kidney; [13]
  Glucose: 87 mg/dL
kidney; [14]
  Creatinine: 0.8 mg/dL
kidney; [15]
  Urea nitrogen: 27 mg/dL
kidney; [16]
  Glucose: 66 mg/dL
[2]
  solubility in acetone and diethyl ether: did not dissolve
  solubility in lower alcohols: dissolved
  solubility in water: easily soluble
  solubility under neutral and alkaline conditions: very easily soluble
[3]
  Total bilirubin: 0.7 mg/dL
  GPT: 182 U/l
  GOT: 887 U/l
[4]; concentration 1x10^-7 M
  inhibition at 0.1 µM: 32.6%
[4]; concentration 2x10^-7 M
  inhibition at 0.2 µM: 45.9%
[4]
  inhibition at 0.5 µM: 61.7%

## CSCCc1nc2c3nc(C(=O)O)cc(C(=O)O)c3c3[nH]c(C(=O)O)cc3c2o1 [2-Methylthioethyl OPQ, 5-(2-Methylthioethyl)-2,8,10-tricarboxy-1H-oxazo-[5,4-h]-pyrrolo[2,3-f]quinoline]
Male SPF-ICR mice; mouse, in vivo
  death of mice: no mice died
kidney; [5]
  Creatinine: 0.8 mg/dL
kidney; [6]
  Urea nitrogen: 26 mg/dL
kidney; [7]
  Glucose: 96 mg/dL
kidney; [8]
  Creatinine: 0.7 mg/dL
kidney; [9]
  Urea nitrogen: 26 mg/dL
kidney; [10]
  Glucose: 88 mg/dL
kidney; [11]
  Creatinine: 0.6 mg/dL
kidney; [12]
  Urea nitrogen: 26 mg/dL
kidney; [13]
  Glucose: 97 mg/dL
kidney; [14]
  Creatinine: 0.7 mg/dL
kidney; [15]
  Urea nitrogen: 26 mg/dL
kidney; [16]
  Glucose: 72 mg/dL
[2]
  solubility in acetone and diethyl ether: did not dissolve
  solubility in lower alcohols: dissolved
  solubility in water: easily soluble
  solubility under neutral and alkaline conditions: especially soluble
[3]
  Total bilirubin: 0.7 mg/dL
  GPT: 157 U/l
  GOT: 693 U/l
[4]; concentration 1x10^-5 M
  inhibition at 10 µM: 83%
[4]
  inhibition at 1 µM: 42%
  inhibition at 2 µM: 54.9%
  inhibition at 5 µM: 81.8%
  inhibition at 0.5 µM: 24.3%

## O=C(O)c1cc(C(=O)O)c2c(n1)c1nc(Cc3ccccc3)oc1c1cc(C(=O)O)[nH]c12 [Benzyl OPQ, 5-Benzyl-2,8,10-tricarboxy-1H-oxazo[5,4-h]-pyrrolo-[2,3-f]-quinoline]
Male SPF-ICR mice; mouse, in vivo
  death of mice: no mice died
kidney; [5]
  Creatinine: 0.7 mg/dL
kidney; [6]
  Urea nitrogen: 23 mg/dL
kidney; [7]
  Glucose: 90 mg/dL
kidney; [8]
  Creatinine: 0.7 mg/dL
kidney; [9]
  Urea nitrogen: 23 mg/dL
kidney; [10]
  Glucose: 87 mg/dL
kidney; [11]
  Creatinine: 0.7 mg/dL
kidney; [12]
  Urea nitrogen: 26 mg/dL
kidney; [13]
  Glucose: 87 mg/dL
kidney; [14]
  Creatinine: 0.7 mg/dL
kidney; [15]
  Urea nitrogen: 25 mg/dL
kidney; [16]
  Glucose: 84 mg/dL
[2]
  solubility in acetone and diethyl ether: did not dissolve
  solubility in lower alcohols: dissolved
  solubility in water: easily soluble
  solubility under neutral and alkaline conditions: especially soluble
[3]
  Total bilirubin: 0.7 mg/dL
  GPT: 233 U/l
  GOT: 993 U/l
[4]
  inhibition at 1 µM: 35.7%
  inhibition at 2 µM: 46.4%
  inhibition at 5 µM: 63.3%

## O=C(O)c1cc(C(=O)O)c2c(n1)C(=O)C(=O)c1cc(C(=O)O)[nH]c1-2 [PQQ·2Na, reference compound]
cataract; 10 mg and 20 mg/kg rat intraperitoneally once a day
  body weight: reduction in body weight was recognized
cataract; 6th day, normal group about 115 g
  Body weight (average): * Body weight reduced (average 66 g). Body weight of rats of normal group was about 115 g on the average.
cataract; 9th day, normal group about 141 g
  Body weight (average): ** Body weight did not increase (average 77 g). Body weight of rats of normal group was about 141 g on the average.
In vivo
  LD50 at 336 h: ~70 mg/kg
Male SPF-ICR mice; 80 mg intraperitoneally, 8 mice, 14 days
  death of mice: five mice died
Male SPF-ICR mice; 160 mg and 200 mg intraperitoneally, 8 mice, 14 days
  death of mice: all of eight mice died
Male SPF-ICR mice; mouse, in vivo
  death of mice: the mice survived
kidney; mouse, in vivo, ip, 20 mg/kg
  Creatinine: 0.8 mg/dL
  Glucose: 70 mg/dL
  Urea nitrogen: 25 mg/dL
kidney; mouse, in vivo, ip, 40 mg/kg
  Creatinine: 2.3 mg/dL
  Glucose: 60 mg/dL
  Urea nitrogen: 110 mg/dL
kidney; mouse, in vivo, ip, 80 mg/kg
  Creatinine: 3.4 mg/dL
  Glucose: 57 mg/dL
  Urea nitrogen: 130 mg/dL
kidney; mouse, in vivo, ip, 160 mg/kg
  Creatinine: 4.2 mg/dL
  Glucose: 35 mg/dL
  Urea nitrogen: 139 mg/dL

— EP0429333B1, “Process for producing oxazopyrroloquinolines, novel oxazopyrroloquinolines, and use of oxazopyrroloquinolines” (priority 1989, dated 1991)
